Consider two molecules from patent US20100062078A1, “PHARMACEUTICAL COMPOSITION FOR TREATING CANCER AND THE SIGNALING PATHWAY THEREOF” (priority 2008, published 2010).

Common to all, as to type: cell-based, human
Experiment [1] deals with MDAH-2774. Kind of experiment: XTT cell proliferation assay (cytotoxicity). The method, then: (§1) Cells were seeded at 7×10^3 per well in 96-well culture plates before treatment with different concentrations of protoapigenone for 12, 24 and/or 48 hours. Next, the cytotoxicity of protoapigenone was determined using XTT cell proliferation assay (Sigma, St. Louis, Mo.). The absorbance of wavelength at 490 nm (OD490) and 650 nm (OD650) were determined respectively by enzyme-linked immunosorbent assay (ELISA) reader, and 50% of inhibitory concentration (IC50) was calculated by the value of OD490-OD650. In addition, in order to evaluate the long-term effect, the cells were treated with different concentration of protoapigenone for 3 hours, then were incubated with fresh medium for 14 days so as to form colonies. Finally, the cells were stained with crystal violet and were observed under the microscope.
For orientation: Formazan colour is commonly taken as a measure of viable cells.

Experiment [2] relates to p38 MAPK. Kind of experiment: Immunoblotting, phosphorylation in LNCap cells. To be noted: LNCap pretreated 1 hour with inhibitor, then protoapigenone 1 hour. An excerpt: The concentration of protein supernatant was further determined using the Bio-Rad protein assay kit (Bio-Rad Laboratories, Hercules, Calif.). Whole cell lysates were separated on polyacrylamide sodium dodecyl sulfate (SDS) gels and the proteins were transferred onto the nitrocellulose membrane. Proteins were detected sequentially by the specific primary antibodies, followed by peroxidase-conjugated secondary antibodies, and visualized by the Enhanced chemiluminescence detection system (Amersham, N.J.).
A general note: In western blotting, separated proteins are transferred to a membrane and probed.

In experiment [3] the test system is LNCap cells. In words: Protoapigenone-induced apoptosis with kinase inhibitor pretreatment. On the procedure:
Human prostate cancer cell line LNCap used in the present invention was purchased from ATCC, Manassas, Va. and was cultured in RPMI 1640 medium supplemented with 10% FBS and penicillin/streptomycin/amphotericin B. LNCap cells were treated with 2.5, 5 and 10 μM protoapigenone respectively and were analyzed. In some experiments, LNCap cells were treated with p38 mitogen-activated protein kinase (MAPK) inhibitor SB203580 or c-Jun NH2-terminal kinase (JNK) ½ inhibitor SP600125 for one hour before protoapigenone treatment.

Experiment [4] concerns LNCap. In words: XTT cell proliferation assay (growth inhibition). Particulars: inhibitor pretreatment, then protoapigenone for 12 hours. On the procedure: as §1
Experiment [5] deals with LNCap cells. In words: Cell cycle analysis (PI flow cytometry). Particulars: inhibitor pretreatment. The method, then:
The ovarian cancer cells and the prostate cancer cells respectively were treated with protoapigenone at different concentrations (0, 2.5, 5 and 10 μM) for 24 hours and 6 hours (or 12 hours). These cells were harvested by trypsin and fixed with 70% ethanol for 1 hour, washed with phosphate buffered saline (PBS) twice, and resuspended in propidium iodide (PI)/RNase A solution for 30 minutes. In accordance with the mechanism of DNA stained with propidium iodide, the cell cycle and sub-G1 distribution were detected by the FACScan flow cytometry (Becton Dickinson, San Jose, Calif.), and data analysis was done with CellQuest software (BD Bioscience).
In general terms: In flow cytometry, cells or beads pass a laser one at a time.

In the case of `N.N.[Cl][Pt][Cl]` [cisplatin, cis-diamminedichloridoplatinum (II), reference compound], the “inhibition of cell growth” value in experiment [1] (MDAH-2774, 5 μM cisplatin) worked out at 28.48%; in experiment [1] (MDAH-2774, 10 μM cisplatin), 36.91%.

Turning to `C[S+]([O-])c1ccc(-c2nc(-c3ccncc3)c(-c3ccc(F)cc3)[nH]2)cc1` (stereo not drawn) [SB203580, reference compound], the “protoapigenone-induced phosphorylation (activation) of p38 MAPK in presence of inhibitor” value in experiment [2] is “blocked”. For the same molecule, the “protoapigenone-induced apoptotic percentage in presence of inhibitor” value in experiment [3] is “decreased”. The “survival rate of LNCap cells vs cells only treated with protoapigenone” value in experiment [4] is on record as “higher”. Further, the “effect of inhibitor on protoapigenone-induced S and G2/M phases arrest” value in experiment [5] is “significantly attenuates”.
